Results on five molecules are retold here after EP0033503A2, “Medicaments with cytostatic activity and use of cyclic compounds, in which the heterocyclic N-ring atoms are substituted by several glycidyl groups, in pharmaceutical compositions” (Henkel Kommanditgesellschaft auf Aktien, priority 1980, dated 1981).

The experiment has as its system Tumorart P 388 (Leukämie). Briefly: Survival of mice bearing P 388 leukemia (NCI protocol 1200), T/C. Type of experiment: in vivo, Maus. To be noted: for response vs control in vivo at 50 mg/kg / response vs control in vivo at 100 mg/kg / response vs control in vivo at 200 mg/kg / response vs control in vivo at 25 mg/kg: Mus musculus; for Testergebnis in % T/C: repeat experiment. The source says: Die nachfolgenden Versuche wurden durchgeführt nach Testvorschriften des National Cancer Institute Bethesda, Maryland 200014, veröffentlicht in Cancer Chemotherapy Reports" Part. 3, September 1972, Vol. 3, Nr. 2. Als Wirksubstanz wurde 1,3-Diglycidyl-benzimidazolon des i vorstehenden Beispiels 1 verwendet. Die Substanz wurde als wäßrige, 1%ige Injektionslösung unmittelbar vor der Applikation frisch hergestellt.
Bei Mäusen wurde gemäß Protokoll 1200 (Seite 91, c.) die Tumorart P 388 (Leukämie) i.p. mit 10^6 Zellen/Maus gesetzt. Die unbehandelten Tiere hatten eine mittlere überlebensdauer von 9,9 Tagen.
Es wird der Wirkstoff appliziert. Der Wirkstoff wird dabei in 9.Gaben in unterschiedlichen Versuchsreihen einmal zu je 200 mg/kg und in einer anderen zu 100 mg/kg und in einer dritten Versuchsreihe zu je 50 mg/kg verabreicht. In beiden Fällen wird eine signifikante Verlängerung der Lebensdauer der behandelten Testtiere gegenüber der Kontrollgruppe der nicht behandelten Tiere erzielt. […] Bei der Testgruppe mit der Dosis von 100 mg/kg beträgt die durchschnittliche Lebenserwartung der Versuchstiere 18 Tage, T/C 181 %. Die Gruppe mit der Dosis 50 mg/kg hatte eine durchschnittliche Lebenserwartung von 15,3 Tagen, T/C 154 %. […]

[1] abbreviates: P388, 50 mg/kg per single dose, first series, unit inferred, read-out: Testergebnis T/C (T/C-Wert).
Setting [2] is: P388, 100 mg/kg per single dose, first series, unit inferred, read-out: Testergebnis T/C (T/C-Wert).
Setting [3] is: P388, 200 mg/kg per single dose, first series, unit inferred, read-out: Testergebnis T/C (T/C-Wert).
Setting [4] is: P388, 100 mg/kg per single dose, 9 doses, first test series, read-out: Verlängerungsrate T/C (Testergebnis in % T/C).
Where [5] appears, read: P388, 200 mg/kg per single dose, 9 doses, first test series, read-out: Verlängerungsrate T/C (Testergebnis in % T/C).

Where two headings read alike, the source gives them in different places.

Where the note is “25 mg/kg per single dose, unit not given”, `O=c1n(-c2ccccc2)c(=O)n(CC2CO2)n1CC1CO1` (centres unmarked) [Beispiel 27, 1,2-Diglycidyl-4-phenylurazol] registered a T/C-Wert of 120. Also, the response vs control in vivo at 50 mg/kg under setting [1] came to 120%. For the same molecule, the response vs control in vivo at 100 mg/kg under setting [2] came out at 150%. Moreover, under setting [3], the response vs control in vivo at 200 mg/kg is 200%.
For the molecule `CC(C)CC1C(=O)N(CC2CO2)C(=O)N(CC2CO2)C1=O` (centres unmarked) [Beispiel 11, 1,3-Diglycidyl-5-isobutylbarbitursäure], under “P388, read-out: Testergebnis T/C (T/C-Wert), 25 mg/kg, second series, unit inferred”, the response vs control in vivo at 25 mg/kg amounted to 129%. For the same molecule, the response vs control in vivo at 50 mg/kg reads like this: (P388, read-out: Testergebnis T/C (T/C-Wert), 50 mg/kg per single dose, first series, unit inferred) 133%; (P388, read-out: Testergebnis T/C (T/C-Wert), 50 mg/kg, second series, unit inferred) 158%. In addition, the response vs control in vivo at 100 mg/kg runs as follows: (P388, read-out: Testergebnis T/C (T/C-Wert), 100 mg/kg per single dose, first series, unit inferred) 158%; (P388, read-out: Testergebnis T/C (T/C-Wert), 100 mg/kg, second series, unit inferred) 184%. Further, the response vs control in vivo at 200 mg/kg is, setting by setting: (P388, read-out: Testergebnis T/C (T/C-Wert), 200 mg/kg per single dose, first series, unit inferred) 194%; (P388, read-out: Testergebnis T/C (T/C-Wert), 200 mg/kg, second series, unit inferred) 252%.
With `CCCCCC(=O)c1ccc2c(c1)n(CC1CO1)c(=O)n2CC1CO1` (centres unmarked) [R2 -H R3 -C-C5H11 " O, N,N-Diglycidyl-5-caproyl-benzimidazolon], the response vs control in vivo at 50 mg/kg (P388, 50 mg/kg per single dose, 9 doses, first test series, read-out: Verlängerungsrate T/C (Testergebnis in % T/C)) was determined as 167%. Besides, the response vs control in vivo at 100 mg/kg under setting [4] was 198%. Moreover, the response vs control in vivo at 200 mg/kg under setting [5] came out at 130%.
Take `O=c1c(F)cn(CC2CO2)c(=O)n1CC1CO1` (centres unmarked) [Diglycidyl-5-floururacil, N,N'-Diglycidyl-5-fluoruracil]: the response vs control in vivo at 50 mg/kg under setting [1] turned out to be 179%. For the same molecule, under setting [2], the response vs control in vivo at 100 mg/kg came to 300%.
`O=c1ccn(CC2CO2)c(=O)n1CC1CO1` (centres unmarked) [Beispiel 13, N,N'-Diglycidyluracil]: the “durchschnittliche Lebenserwartung der Versuchstiere” value (100 mg/kg per single dose, 9 doses) is 16,0 Tage. In addition, the “Testergebnis in % T/C” value is, setting by setting: (100 mg/kg) 152%; (200 mg/kg) 198%. Also, where the note is “200 mg/kg per single dose, 9 doses”, the “durchschnittliche Lebensdauer der Testgruppe” value was 24 Tage. The response vs control in vivo at 25 mg/kg (P388, 25 mg/kg, second series, unit inferred, read-out: Testergebnis T/C (T/C-Wert)) was 114%. Moreover, the response vs control in vivo at 50 mg/kg under setting [1] is 131% and the response vs control in vivo at 50 mg/kg (P388, 50 mg/kg, second series, unit inferred, read-out: Testergebnis T/C (T/C-Wert)) worked out at 124%. Further, the response vs control in vivo at 100 mg/kg was found to be 153% under setting [4]; 156% under setting [2]; 152% (P388, 100 mg/kg, second series, unit inferred, read-out: Testergebnis T/C (T/C-Wert)). Besides, the response vs control in vivo at 200 mg/kg by setting is: under setting [5], 230%; under setting [3], 230%; (P388, 200 mg/kg, second series, unit inferred, read-out: Testergebnis T/C (T/C-Wert)) 198%.
